Patent US11498899B2, “Nitrone herbicides” (FMC Corporation, priority 2016, dated 2022)

Key:
[1] = test system: barnyardgrass (Echinochloa crus-galli); experiment: Test A preemergence, visual injury rating 0-100 (0 no effect, 100 complete control); type: in vivo
[2] = test system: foxtail, giant (giant foxtail, Setaria faberii); experiment: Test A preemergence, visual injury rating 0-100; type: in vivo
[3] = test system: kochia (Kochia scoparia); experiment: Test A preemergence, visual injury rating 0-100; type: in vivo
[4] = test system: pigweed (Amaranthus retroflexus); experiment: Test A preemergence, visual injury rating 0-100; type: in vivo
[5] = test system: ragweed (common ragweed, Ambrosia elatior); experiment: Test A preemergence, visual injury rating 0-100; type: in vivo
[6] = test system: ryegrass, Italian (Italian ryegrass, Lolium multiflorum); experiment: Test A preemergence, visual injury rating 0-100; type: in vivo
[7] = test system: barnyardgrass (Echinochloa crus-galli); experiment: Test A postemergence, visual injury rating 0-100; type: in vivo; conditions: 0 to 100 scale
[8] = test system: blackgrass (Alopecurus myosuroides); experiment: Test A postemergence, visual injury rating 0-100; type: in vivo; conditions: 0 to 100 scale
[9] = test system: corn (Zea mays); experiment: Test A postemergence, visual injury rating 0-100; type: in vivo; conditions: 0 to 100 scale
[10] = test system: foxtail, giant (giant foxtail, Setaria faberii); experiment: Test A postemergence, visual injury rating 0-100; type: in vivo; conditions: 0 to 100 scale
[11] = test system: galium (catchweed bedstraw, Galium aparine); experiment: Test A postemergence, visual injury rating 0-100; type: in vivo; conditions: 0 to 100 scale
[12] = test system: kochia (Kochia scoparia); experiment: Test A postemergence, visual injury rating 0-100; type: in vivo; conditions: 0 to 100 scale
[13] = test system: pigweed (Amaranthus retroflexus); experiment: Test A postemergence, visual injury rating 0-100; type: in vivo; conditions: 0 to 100 scale
[14] = test system: ragweed (common ragweed, Ambrosia elatior); experiment: Test A postemergence, visual injury rating 0-100; type: in vivo; conditions: 0 to 100 scale
[15] = test system: ryegrass, Italian (Italian ryegrass, Lolium multiflorum); experiment: Test A postemergence, visual injury rating 0-100; type: in vivo; conditions: 0 to 100 scale
[16] = test system: wheat (Triticum aestivum); experiment: Test A postemergence, visual injury rating 0-100; type: in vivo; conditions: 0 to 100 scale
[17] = test system: ducksalad (Heteranthera limosa); experiment: Test B flooded paddy test, visual rating 0-100; conditions: Flood, 250 g ai/ha, applied to paddy water, rated after 13 to 15 days
[18] = test system: barnyardgrass (Echinochloa crus-galli); experiment: Test B flooded paddy test, visual rating 0-100; conditions: Flood, 250 g ai/ha, applied to paddy water, rated after 13 to 15 days
[19] = test system: rice (Oryza sativa); experiment: Test B flooded paddy test, visual rating 0-100 (0 no effect, 100 complete control); conditions: Flood, 250 g ai/ha, applied to paddy water, rated after 13 to 15 days
[20] = 31 g ai/ha, 0 to 100 scale (0 no effect, 100 complete control), approx. 10 days

SMILES | Barnyardgrass plant response rating (0 to 100 scale) ([1]; 125 g ai/ha) | Foxtail, Giant plant response rating (0 to 100 scale) ([2]; 125 g ai/ha) | Kochia plant response rating (0 to 100 scale) ([3]; 125 g ai/ha) | Pigweed plant response rating (0 to 100 scale) ([4]; 125 g ai/ha) | Ragweed plant response rating (0 to 100 scale) ([5]; 125 g ai/ha) | Barnyardgrass plant response rating ([7]; 125 g ai/ha) | Barnyardgrass plant response rating ([7]; 500 g ai/ha) | Blackgrass plant response rating ([8]; 125 g ai/ha) | Blackgrass plant response rating ([8]; 500 g ai/ha) | Corn plant response rating ([9]; 125 g ai/ha) | Foxtail, Giant plant response rating ([10]; 125 g ai/ha) | Galium plant response rating ([11]; 125 g ai/ha) | Kochia plant response rating ([12]; 125 g ai/ha) | Pigweed plant response rating ([13]; 125 g ai/ha) | Ragweed plant response rating ([14]; 125 g ai/ha) | Ryegrass, Italian plant response rating ([15]; 125 g ai/ha) | Wheat plant response rating ([16]; 125 g ai/ha) | Ducksalad plant response rating (0 to 100 scale) [17] | Barnyardgrass plant response rating (0 to 100 scale) [18] | Rice plant response rating (0 to 100 scale) [19] | further results
CC1=[N+]([O-])C(C(=O)Nc2cccc(F)c2F)C(c2cc(C)cc(C)c2)C1 (racemic) [Compound 112] | 90 | 90 | 50 | 0 | 40 | 70 | 90 | 80 | 80 | 80 | 90 | 50 | 0 | 0 | 0 | 40 | 40 | 45 | 70 | 0 | Barnyardgrass plant response rating (0 to 100 scale) ([1]; 500 g ai/ha): 100; Foxtail, Giant plant response rating (0 to 100 scale) ([2]; 500 g ai/ha): 100; Kochia plant response rating (0 to 100 scale) ([3]; 500 g ai/ha): 90; Pigweed plant response rating (0 to 100 scale) ([4]; 500 g ai/ha): 70; Ragweed plant response rating (0 to 100 scale) ([5]; 500 g ai/ha): 80; Ryegrass, Italian plant response rating (0 to 100 scale) ([6]; 500 g ai/ha): 100; Corn plant response rating ([9]; 500 g ai/ha): 90; Foxtail, Giant plant response rating ([10]; 500 g ai/ha): 90; Galium plant response rating ([11]; 500 g ai/ha): 70; Kochia plant response rating ([12]; 500 g ai/ha): 20; Pigweed plant response rating ([13]; 500 g ai/ha): 0; Ragweed plant response rating ([14]; 500 g ai/ha): 60; Ryegrass, Italian plant response rating ([15]; 500 g ai/ha): 90; Wheat plant response rating ([16]; 500 g ai/ha): 70
CC1=[N+]([O-])C(C(=O)Nc2cccc(F)c2F)C(c2cccc(C3OCCO3)c2)C1 (racemic) [Compound 105] | 30 | 60 | 0 | 0 | 0 | 30 | 80 | 20 | 60 | 0 | 10 | 30 | 0 | 0 | 0 | 0 | 0 | 0 | 0 | 0 | Barnyardgrass plant response rating (0 to 100 scale) ([1]; 500 g ai/ha): 90; Foxtail, Giant plant response rating (0 to 100 scale) ([2]; 500 g ai/ha): 90; Kochia plant response rating (0 to 100 scale) ([3]; 500 g ai/ha): 60; Pigweed plant response rating (0 to 100 scale) ([4]; 500 g ai/ha): 0; Ragweed plant response rating (0 to 100 scale) ([5]; 500 g ai/ha): 0; Ryegrass, Italian plant response rating (0 to 100 scale) ([6]; 500 g ai/ha): 80; Corn plant response rating ([9]; 500 g ai/ha): 40; Foxtail, Giant plant response rating ([10]; 500 g ai/ha): 30; Galium plant response rating ([11]; 500 g ai/ha): 40; Kochia plant response rating ([12]; 500 g ai/ha): 0; Pigweed plant response rating ([13]; 500 g ai/ha): 0; Ragweed plant response rating ([14]; 500 g ai/ha): 40; Ryegrass, Italian plant response rating ([15]; 500 g ai/ha): 40; Wheat plant response rating ([16]; 500 g ai/ha): 30
CC1=[N+]([O-])[C@@H](C(=O)Nc2cccc(F)c2F)[C@H](c2cccc(OC(C)(C)C)c2)C1 [Compound 69] | 90 | 100 | 0 | 0 | 0 | 70 |  | 70 |  | 0 | 90 | 40 | 0 | 20 | 20 | 70 | 0 | 95 | 90 | 0 | Barnyardgrass plant response rating [1, 20]: 90; Foxtail, Giant plant response rating [2, 20]: 90; Kochia plant response rating [3, 20]: 0; Pigweed plant response rating [4, 20]: 0; Ragweed plant response rating [5, 20]: 0; Ryegrass, Italian plant response rating [6, 20]: 20; Ryegrass, Italian plant response rating (0 to 100 scale) ([6]; 125 g ai/ha): 80; Barnyardgrass plant response rating ([7]; 31 g ai/ha): 30; Blackgrass plant response rating ([8]; 31 g ai/ha): 10; Corn plant response rating ([9]; 31 g ai/ha): 0; Foxtail, Giant plant response rating ([10]; 31 g ai/ha): 20; Galium plant response rating ([11]; 31 g ai/ha): 20; Kochia plant response rating ([12]; 31 g ai/ha): 0; Pigweed plant response rating ([13]; 31 g ai/ha): 0; Ragweed plant response rating ([14]; 31 g ai/ha): 0; Ryegrass, Italian plant response rating ([15]; 31 g ai/ha): 30; Wheat plant response rating ([16]; 31 g ai/ha): 0
CC1=[N+]([O-])[C@H](C(=O)Nc2cccc(F)c2F)[C@@H](c2ccc(C)cc2)C1 (relative stereo) [Compound 6, rel-(2S,3R)—N-(2,3-Difluorophenyl)-3,4-dihydro-5-methyl-3-(4-methylphenyl)-2H-pyrrole-2-carboxamide 1-oxide] | 100 | 100 | 70 | 80 | 40 | 90 | 90 | 50 | 80 | 30 | 90 | 50 | 30 | 40 | 0 | 50 | 60 | 100 | 85 | 0 | Barnyardgrass plant response rating ([1]; 500 g ai/ha, 0 to 100 scale): 100; Foxtail, Giant plant response rating ([2]; 500 g ai/ha, 0 to 100 scale): 100; Kochia plant response rating ([3]; 500 g ai/ha, 0 to 100 scale): 70; Pigweed plant response rating ([4]; 500 g ai/ha, 0 to 100 scale): 90; Ragweed plant response rating ([5]; 500 g ai/ha, 0 to 100 scale): 100; Ryegrass, Italian plant response rating (0 to 100 scale) ([6]; 125 g ai/ha): 80; Ryegrass, Italian plant response rating ([6]; 500 g ai/ha, 0 to 100 scale): 90; Corn plant response rating ([9]; 500 g ai/ha): 80; Foxtail, Giant plant response rating ([10]; 500 g ai/ha): 90; Galium plant response rating ([11]; 500 g ai/ha): 70; Kochia plant response rating ([12]; 500 g ai/ha): 70; Pigweed plant response rating ([13]; 500 g ai/ha): 50; Ragweed plant response rating ([14]; 500 g ai/ha): 60; Ryegrass, Italian plant response rating ([15]; 500 g ai/ha): 60; Wheat plant response rating ([16]; 500 g ai/ha): 80
CC1=[N+]([O-])C(C(=O)Nc2cccc(F)c2F)C(c2cc(C)ccc2C)C1 (racemic) [Compound 79] | 90 | 80 | 0 | 0 | 0 | 70 | 80 | 20 | 70 | 20 | 70 | 20 | 0 | 0 | 30 | 0 | 20 | 100 | 60 | 0 | Barnyardgrass plant response rating (0 to 100 scale) ([1]; 500 g ai/ha): 90; Foxtail, Giant plant response rating (0 to 100 scale) ([2]; 500 g ai/ha): 90; Kochia plant response rating (0 to 100 scale) ([3]; 500 g ai/ha): 20; Pigweed plant response rating (0 to 100 scale) ([4]; 500 g ai/ha): 0; Ragweed plant response rating (0 to 100 scale) ([5]; 500 g ai/ha): 0; Ryegrass, Italian plant response rating (0 to 100 scale) ([6]; 125 g ai/ha): 30; Ryegrass, Italian plant response rating (0 to 100 scale) ([6]; 500 g ai/ha): 50; Corn plant response rating ([9]; 500 g ai/ha): 70; Foxtail, Giant plant response rating ([10]; 500 g ai/ha): 90; Galium plant response rating ([11]; 500 g ai/ha): 30; Kochia plant response rating ([12]; 500 g ai/ha): 0; Pigweed plant response rating ([13]; 500 g ai/ha): 0; Ragweed plant response rating ([14]; 500 g ai/ha): 30; Ryegrass, Italian plant response rating ([15]; 500 g ai/ha): 50; Wheat plant response rating ([16]; 500 g ai/ha): 70
